Laboratory results reported in patent US11766447B2, “3′3′-cyclic dinucleotide analogue comprising a cyclopentanyl modified nucleotide as sting modulator” (INSTITUTE OF ORGANIC CHEMISTRY AND BIOCHEMISTRY ASCR, V.V.I., priority 2019, dated 2023).
Like-named read-outs stand apart in the source and are kept apart here.

How the values were obtained:
[1] = biological target: T1, WT STING (Homo sapiens, UniProt Q86WV6, H232R); experiment: Digitonin assay using 293T wtSTING-FL reporter cells; assay type: cell-based; parameters: host or cells: 293T (ATCC CRL-3216), stably transfected, with 4xISRE firefly luciferase reporter; details: 293T wtSTING-FL cells, ISRE firefly luciferase; compounds in Digitonin buffer 30 minutes, then 5 hours; 8-point curve
Source text: Two complementary oligonucleotides of the sequence […] […] […] […] […] The oligonucleotides were mixed in equal molar amounts, hybridized, and cleaved by restriction endonucleases HindIII (cat. #. R0104S, NEB, Ipswich, USA) and BglII (cat. #R0144S, NEB, Ipswich, USA). Ultimately, they were ligated into plasmid pGL4.27 (cat. #E6651, Promega, Madison, USA) linearized with the same enzymes. As result the sequence with four ISRE sites was placed upstream of the minimum promoter of firefly luciferase reporter gene.
After 5 minutes incubation at room temperature (RT), 250 μL of the mixture was added dropwise to the cells in one well. Cells were incubated 36 hours at 37° C. with 5% CO2, and then detached with 0.05% Trypsin and 0.22 g/L EDTA (both cat. #L0941, Biowest, Riverside, USA).
Transfected cells were seeded onto poly-D-lysine coated six well plates at density 50,000 cells per 1 cm^2 in DMEM medium with high glucose containing 10% heat inactivated FBS, 30 μg/mL blasticidin (cat. #ant-b1-05, InvivoGen, San Diego, USA), 0.06 mg/ml Penicillin G and 0.1 mg/ml Streptomycin Sulfate (both cat. #. L0018, Biowest, Riverside, USA). The medium was replenished every 3-4 days until visible colonies of cells resistant to blasticidin were formed.
Blasticidin resistant cells stably expressing WT STING were further transfected with […] plasmid following the same procedure as described above. […] Homogeneous culture of stably double transfected cells was prepared by limiting dilution of cells in 96 well plates and wells with cells were selected that originated from a single cell.
The medium was removed next day and three fold serial dilutions of compounds in Digitonin buffer containing 50 mmol·l^−1 HEPES (cat. #H3375, Sigma Aldrich, Czech Republic) pH 7.0, 100 mmol·l^−1 KCl, 3 mmol·l^−1 MgCl2, 0.1 mmol·l^−1 DTT (cat. #D0632, Sigma Aldrich, Czech Republic), 85 mmol·l^−1 Sucrose (cat. #S7903, Sigma Aldrich, Czech Republic), 0.2% BSA (cat. #A2153, Sigma Aldrich, Czech Republic), 1 mmol·l^−1 ATP (cat. #A1852, Sigma Aldrich, Czech Republic), 0.1 mmol·l^−1 GTP (cat. #G8877, Sigma Aldrich, Czech Republic), and 10 μg/mL Digitonin A (cat. #D141, Sigma Aldrich, Czech Republic) were added to the cells. The buffer was removed after 30 minutes incubation at 37° C. with 5% CO2, the cells were washed once with 100 μl of cultivation medium, and 100 μl of medium was added to each well. The plates with cells were incubated for 5 hours at 37° C. with 5% CO2, 50 μl of the medium was removed and 30 μl of ONE-Glo™ Luciferase Assay System reagent (cat. #E6120, Promega, Madison, USA) was added to each well. Luminescence was read on Synergy H1 (Biotek, Winooski, USA). GraphPad Prism (La Jolla, USA) was used to calculate the 50% effective concentration ([…] from an 8-point dose-response curve.
Target sequence in this assay (Q86WV6 whole entry H232R): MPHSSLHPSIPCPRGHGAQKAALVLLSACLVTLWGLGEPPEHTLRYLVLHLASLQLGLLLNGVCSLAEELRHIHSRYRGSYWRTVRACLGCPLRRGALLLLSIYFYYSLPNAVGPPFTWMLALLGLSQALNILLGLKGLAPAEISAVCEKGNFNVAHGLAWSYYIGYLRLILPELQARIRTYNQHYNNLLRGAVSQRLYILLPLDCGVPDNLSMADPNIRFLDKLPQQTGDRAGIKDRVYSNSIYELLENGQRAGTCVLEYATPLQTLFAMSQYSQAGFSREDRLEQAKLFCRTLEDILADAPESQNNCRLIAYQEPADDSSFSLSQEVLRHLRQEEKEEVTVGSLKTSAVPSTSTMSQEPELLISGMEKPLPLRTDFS

[2] = biological target: T1, WT STING; experiment: Differential scanning fluorimetry (DSF) with WT STING; assay type: binding; parameters: 8xHis (N, cleaved yes); SUMO (N, cleaved yes); made in house; host or cells: E. coli Rosetta-gami B (DE3); details: thermal shift vs apoprotein; 150 μM CDN; truncated human WT STING 0.1 mg/ml
Method: (§1) Purified PCR products were cleaved with restriction enzymes BamHI (cat. #R0136S, NEB, Ipswich, USA) and NotI (cat. #R0189S, NEB, Ipswich, USA) and cloned into the pSUMO vector linearized with the identical enzymes.
(§2) DNase I (cat. #D5025, Sigma Aldrich, Czech Republic) and RNase A (cat. #R6513, Sigma Aldrich, Czech Republic) were added (final concentration 50 μg/ml) together with MgCl2 (final concentration 5 mmol·l^−1) to the homogenate and bacteria were lysed using French Press G-M™ High-Pressure Cell Press Homogenizer (1500 psi, 3 cycles). […] The resin was poured into a chromatography column, washed with 50 ml buffer A (50 mmol·l^−1 TrisCl (pH 8.0), 800 mmol·l^−1 NaCl, 3 mmol·l^−1 β-mercaptoethanol; 10% glycerol; 20 mmol·l^−1 imidazol) and 8-His-SUMO tagged STING proteins were eluted with 15 ml buffer A containing 300 mmol·l^−1 imidazole. […] Proteins were concentrated with Amicon® Ultra-15 10 K device (cat. #UFC901008, Merck Millipore, Billerica, USA) and flash frozen in liquid N2.
(§3) 20 μL solutions of the reaction mixtures were pipetted in triplicates into 96 well optical reaction plates and thermal denaturation of samples were performed on real time PCR cycler (LightCycler® 480 Instrument II—Roche, Basel, Switzerland). The first derivative of the thermal denaturation curves was performed to calculate denaturing temperatures of STING-CDN complexes and STING apoproteins. The thermal shift for each CDN was calculated by subtracting the average denaturing temperature of STING apoprotein from the average denaturing temperature of STING CDN complex.
Target sequence in this assay (Q86WV6 140-343 H232R): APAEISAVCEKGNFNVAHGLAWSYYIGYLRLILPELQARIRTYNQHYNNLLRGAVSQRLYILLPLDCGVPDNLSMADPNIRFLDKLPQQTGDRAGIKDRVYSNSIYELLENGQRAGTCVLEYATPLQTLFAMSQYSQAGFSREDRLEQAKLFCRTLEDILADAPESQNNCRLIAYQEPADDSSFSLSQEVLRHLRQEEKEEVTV

[3] = biological target: T2, AQ STING (G230A-R293Q) (Homo sapiens, UniProt Q86WV6, G230A/H232R/R293Q); experiment: Differential scanning fluorimetry (DSF) with AQ STING; assay type: binding; details: thermal shift vs apoprotein; 150 μM CDN; truncated human AQ STING 0.1 mg/ml
T2 construct: 8xHis (N, cleaved yes); SUMO (N, cleaved yes); made in house; host or cells: E. coli Rosetta-gami B (DE3)
T2 sequence (Q86WV6 140-343 G230A/H232R/R293Q): as the sequence (Q86WV6 140-343 H232R) above, with G91A, R154Q counted along it
Method: as §1, §2, §3

[4] = tested on: peripheral blood mononuclear cells (PBMC); experiment: Peripheral blood mononuclear cell (PBMC) assay; assay type: cell-based; details: 1 h with compounds, washed, 15 hour incubation, average of one to four donors
Method: Selected compounds were tested in an in vitro peripheral blood mononuclear cell (PBMC) assay. […] Serially diluted tested compounds were added to wells in 50 μl of cultivation medium and cell were incubated with compounds for 1 h at 37° C. with 5% CO2. Plates with cells were then spun 500 g for 5 minutes and medium was removed. Cells were washed twice with the cell culture medium by the use of centrifugation and gently resuspended in 100 μl medium without compounds. After 15 hour incubation at 37° C. with 5% CO2, the cell culture medium was collected and the levels of interferon-alpha (INF-α), interferon-gamma (INF-γ) and tumor necrosis factor-alpha (TNF-α) were determined with ProcartaPlex Assays (ThermoFisher, Waltham, USA) and MAGPIX System (Merck KGaA, Darmstadt, Germany). […] Values reported are an average of runs from one to four donors.

Nc1ncnc2c1ncn2[C@@H]1C[C@@H]2COP(=O)(S)OC3C(F)[C@H](n4cnc5c(N)ncnc54)O[C@@H]3COP(=O)(S)OC2C1F (single isomer, unassigned) [Compound 102c]
EC50 [1]: 10 nM

Nc1nc2c(ncn2[C@@H]2C[C@@H]3COP(=O)(O)OC4C(F)[C@H](n5cnc6c(N)ncnc65)O[C@@H]4COP(=O)(O)OC3C2O)c(=O)[nH]1 (single isomer, unassigned) [Compound 103]
EC50 [1]: 10 nM
DSF ΔTm (° C.) WT STING [2]: 7.6 °C
DSF ΔTm (° C.) AQ STING [3]: 16.6 °C

Nc1nc2c(ncn2[C@@H]2C[C@@H]3COP(=O)(O)OC4C(F)[C@H](n5cnc6c(N)ncnc65)O[C@@H]4COP(=O)(O)OC3C2O)c(=O)[nH]1 (single isomer, unassigned) [Compound 105]
EC50 [1]: 1600 nM
DSF ΔTm (° C.) WT STING [2]: 0.8 °C
DSF ΔTm (° C.) AQ STING [3]: 7.0 °C

Nc1nc2c(ncn2[C@@H]2O[C@@H]3COP(=O)(O)OC4C(O)[C@H](n5cnc6c(N)ncnc65)C[C@@H]4COP(=O)(O)OC3C2F)c(=O)[nH]1 (single isomer, unassigned) [Compound 109]
EC50 [1]: 10 nM
DSF ΔTm (° C.) WT STING [2]: 8.9 °C
ΔTm at 150 µM [3]: 18.5 °C

Nc1nc2c(ncn2[C@@H]2O[C@@H]3COP(=O)(O)OC4C(O)[C@H](n5cnc6c(N)ncnc65)C[C@@H]4COP(=O)(O)OC3C2F)c(=O)[nH]1 (single isomer, unassigned) [Compound 111]
EC50 [1]: 70 nM
DSF ΔTm (° C.) WT STING [2]: 4.1 °C
DSF ΔTm (° C.) AQ STING [3]: 13.7 °C

Nc1ncnc2c1ncn2[C@@H]1C[C@@H]2COP(=O)(S)O[C@@H]3[C@@H](COP(=O)(S)O[C@H]2[C@H]1F)C[C@@H](n1cnc2c(N)ncnc21)[C@@H]3F (single isomer, unassigned) [Compound 128a]
EC50 [1]: 10 nM
ΔTm at 150 µM [2]: 9.6 °C
ΔTm at 150 µM [3]: 14.8 °C

Nc1nc2c(ncn2[C@H]2CC3OP(=O)(S)OC[C@H]4O[C@@H](n5cnc6c(N)ncnc65)C(F)C4OP(=O)(S)OC[C@H]3C2)c(=O)[nH]1 (single isomer, unassigned) [Compound 129a]
EC50 [1]: 100 nM
ΔTm at 150 µM [2]: 6.4 °C
ΔTm at 150 µM [3]: 14 °C

Nc1nc2c(ncn2[C@H]2CC3OP(=O)(S)OC[C@H]4O[C@@H](n5cnc6c(N)ncnc65)C(F)C4OP(=O)(S)OC[C@H]3C2)c(=O)[nH]1 (single isomer, unassigned) [Compound 129b]
EC50 [1]: 200 nM
DSF ΔTm (° C.) WT STING [2]: 7.0 °C
DSF ΔTm (° C.) AQ STING [3]: 13.2 °C

Nc1nc2c(ncn2[C@@H]2C[C@@H]3COP(=O)(S)O[C@H]4[C@@H](F)[C@H](n5cnc6c(N)ncnc65)O[C@@H]4COP(=O)(S)O[C@H]3C2)c(=O)[nH]1 (single isomer, unassigned) [Compound 129c]
EC50 [1]: 400 nM
DSF ΔTm (° C.) WT STING [2]: 6.4 °C
ΔTm at 150 µM [3]: 13.2 °C

Nc1nc2c(ncn2[C@@H]2O[C@@H]3COP(=O)(S)O[C@@H]4[C@@H](COP(=O)(S)O[C@H]3[C@H]2F)C[C@@H](n2cnc3c(N)ncnc32)[C@@H]4F)c(=O)[nH]1 (single isomer, unassigned) [Compound 132a]
EC50 [1]: 8 nM
ΔTm at 150 µM [2]: 12.9 °C
ΔTm at 150 µM [3]: 19.9 °C

Nc1ncnc2c1ncn2[C@@H]1C[C@@H]2COP(=O)(O)OC3C(F)[C@H](n4cnc5c(N)ncnc54)O[C@@H]3COP(=O)(S)OC2C1F (single isomer, unassigned) [Compound 141a]
EC50 [1]: 3000 nM
DSF ΔTm (° C.) WT STING [2]: 0.3 °C
DSF ΔTm (° C.) AQ STING [3]: 3.9 °C

Nc1ncnc2c1ncn2[C@@H]1C[C@@H]2COP(=O)(O)OC3C(F)[C@H](n4cnc5c(N)ncnc54)O[C@@H]3COP(=O)(S)OC2C1F (single isomer, unassigned) [Compound 141b]
EC50 [1]: 50 nM
DSF ΔTm (° C.) WT STING [2]: 5.3 °C
DSF ΔTm (° C.) AQ STING [3]: 11.6 °C

Nc1ncnc2c1ncn2[C@@H]1C[C@@H]2COP(=O)(S)O[C@H]3C[C@H](n4cnc5c(N)ncnc54)O[C@@H]3COP(=O)(S)O[C@H]2[C@H]1F (single isomer, unassigned) [Compound 142a]
EC50 [1]: 30 nM

CC(C)(C)C(=O)OCSP1(=O)OC[C@H]2O[C@@H](n3cnc4c(=O)[nH]c(N)nc43)[C@H](F)[C@@H]2OP(=O)(SCOC(=O)C(C)(C)C)OC[C@H]2C[C@@H](n3cnc4c(N)ncnc43)[C@H](F)[C@@H]2O1 (single isomer, unassigned) [Compound 150a]
EC50 ([4]; interferon-alpha level, read-out: PBMC EC50 (μM) IFN-α): 1 µM
EC50 ([4]; interferon-gamma level, read-out: PBMC EC50 (μM) IFN-γ): 0.7 µM
EC50 ([4]; tumor necrosis factor-alpha level, read-out: PBMC EC50 (μM) TNF-α): 0.7 µM

Nc1ncnc2c1ncn2[C@@H]1O[C@@H]2COP(=O)(O)O[C@H]3[C@@H](O)[C@H](n4cnc5c(N)ncnc54)O[C@@H]3COP(=O)(O)O[C@H]2[C@H]1O [3′3′c-di-AMP, reference compound]
EC50 [1]: 300 nM
DSF ΔTm (° C.) WT STING [2]: 2.6 °C
DSF ΔTm (° C.) AQ STING [3]: 9.3 °C

COC1C2OP(=O)(O)OC[C@H]3C[C@@H](n4cnc5c(=O)[nH]c(N)nc54)C(O)C3OP(=O)(O)OC[C@H]2O[C@H]1n1cnc2c(N)ncnc21 (stereo partly drawn) [Compound 118, (6R,8R,15R,17R)-17-(2-amino-6-oxo-6,9-dihydro-1H-purin-9-yl)-8-(6-amino-9H-purin-9-yl)-3,12,18-trihydroxy-9-methoxy-2,4,7,11,13-pentaoxa-3λ^5,12λ^5-diphosphatricyclo[13.3.0.0^6,10]octadecane-3,12-dione]
ΔTm at 150 µM [2]: 0.5 °C
ΔTm at 150 µM [3]: 1.5 °C
